Test results taken from article PMC10508631, “Development of an antibody fused with an antimicrobial peptide targeting Pseudomonas aeruginosa: A new approach to prevent and treat bacterial infections” (PLOS Pathogens, 2023).
Converted amounts (≈) assume the structure as drawn. Where a SMILES comes first, the peptide text is derived from it.

Columns and labels:
[1] = tested on: 293T human cell line; test: Mammalian cell cytotoxicity (CellTiter Glo); type: cell-based; settings: for Cytotox CC50: 293T cells, 10,000 cells/well, three days, 37°C, CellTiter Glo luminescence
Protocol: On day one, cells from an established 293T human cell line were seeded onto 96-well flat-bottom white plates (10,000 293T cells/well). On day two, dilution plates were prepared by diluting compound in cell growth medium to two times the final starting concentration and then carrying out serial two-fold dilutions across the plate. Medium from the cell growth assay plates was then aspirated, and 50 μl from the compound dilution plates were transferred to the assay plates. Fifty microliters of fresh media were then added to all the wells. The plates were incubated at 37°C, 5% CO2 for three days. […]. Media from the assay plates was aspirated, and 100 μl of CellTiter Glo/growth media mix was added to all wells. After five minutes, luminescence was read, and% inhibition vs. compound concentration was plotted.

[2] = tested on: red blood cells (defibrinated sheep's blood); test: RBC hemolysis assay; type: cell-based; settings: RBCs
Protocol: Test substances were diluted 2-fold in water across a 96-well polypropylene mother plate, leaving one no-compound control. Two microliters from each well were stamped onto a 96-well polystyrene assay plate. A red blood cell suspension was made by mixing 0.2% defibrinated sheep’s blood (Hardy Diagnostics DSB100) in PBS. All assay plates received 100 μl/well of the red blood cell suspension. Plates were then incubated at 37°C overnight.

[3] = MIC in human serum; type: cell-based; settings: ratio to MIC, strain not given, NA = no activity in human serum
[4] = tested on: S. aureus 29213
Protocol: (§1) MICs and a killing assay were performed in this study. MICs were determined according to CLSI guidelines, using 2-fold serial compound dilutions in 96-well microtiter plates. Briefly, compounds were diluted in water across a mother plate and then 2 μl were stamped to assay plates—one plate for each strain to be tested. Bacterial strains were sub-cultured overnight on agar plates at 37°C. […] These concentrated cultures were diluted 1:200 in growth media to approximately 5 x 10^5 cells/ml. All assay plates received 100 μL diluted culture per well. All plates were placed at 37°C overnight. […] Wells at and above the MIC should appear devoid of growth when visualized.

[5] = tested on: E. coli ATCC 25922
Protocol: as §1

[6] = tested on: P. aeruginosa ATCC 27853; type: cell-based, Pseudomonas aeruginosa; settings: for MIC P. aeruginosa ATCC 27853: CLSI microdilution, 2-fold dilutions, ~5 x 10^5 cells/ml, 37°C, 18 hours, MIC = lowest concentration inhibiting growth by at least 80%
Protocol: (§2) All plates were placed at 37°C overnight.

[7] = tested on: P. aeruginosa ATCC 39324; type: cell-based, Pseudomonas aeruginosa; settings: for MIC P. aeruginosa ATCC 39324: CLSI microdilution, 2-fold dilutions, ~5 x 10^5 cells/ml, 37°C, 18 hours, MIC = at least 80% growth inhibition
Protocol: as §2

[8] = in vitro; settings: human, normal human serum diluted in water
Protocol: The supernatant was warmed to 37°C in a water bath. Twenty microliters of each test article were placed in a 2.0 ml round bottom microfuge tube. Two milliliters of diluted NHS were added to each tube, which was immediately vortexed, followed by transfer of 200 μl to a fresh microfuge tube placed at 37°C in a rotating rack.
Twenty microliters of each test article at 10 mg/ml were placed in a 2.0 mL round-bottomed microfuge tube. […] The tubes were immediately vortexed, and 200 μl were transferred to a fresh microfuge tube with 40 μl of 1% trichloroacetic acid (TCA). Assay tubes were placed at 37°C in a rotating rack. […] Supernatant from each tube was collected and frozen at -20°C for analysis. Mass spectrometry was used to quantify the percentage of test substance still intact.

[9] = tested on: P. aeruginosa BAA-2110; test: Killing assay; type: cell-based, Pseudomonas aeruginosa; settings: third-generation cephalosporin-resistant strain; PBS + 1% BSA, 37°C, 90 minutes
Protocol: (§3) Overnight plates were used to seed 30 ml cultures of growth media in 250 ml vented flasks. Cultures were grown aerobically at 37°C with shaking at 150 rpm. Growth was monitored at A600, and bacterial cells were harvested at mid-log growth. Ten milliliters of culture were pelleted at 4000 x g for 10 minutes and washed once with PBS + 1% BSA (PBSA) prior to resuspension in 2 ml of PBSA. The concentrated culture was used to seed 6 ml tubes of PBSA to an OD giving a concentration of 1 x 10^8 cells/ml. Cultures were diluted to 1 x10^4 cells/ml in PBSA. Test substances were diluted in PBSA, and 50 μL per concentration tested were loaded into a 96-well polypropylene microtiter plate. Fifty microliters of diluted culture were added to all test wells and all no-compound control wells. Plates were shaken and then incubated at 37°C for 90 minutes without shaking. Ten microliters from each assay well were plated onto agar plates and incubated at 37°C overnight. Percent killing was determined by the CFU for test wells vs. the CFU for no-compound control wells.

[10] = tested on: P. aeruginosa; test: Killing assay, strains not itemised; type: cell-based, Pseudomonas aeruginosa; settings: P. aeruginosa ATCC strains; 1 x10^4 cells/ml in PBS + 1% BSA, 37°C, 90 minutes, CFU plating; EC50 = lowest concentration causing > 50% colony reduction
Protocol: as §3

[11] = tested on: P. aeruginosa ATCC 27853 and P. aeruginosa ATCC 39324; settings: two ATCC strains of P. aeruginosa, CLSI
Protocol: as §1

[12] = CLSI microdilution, 2-fold dilutions, ~5 x 10^5 cells/ml, 37°C, 18 hours, MIC = at least 80% growth inhibition
[13] = molar equivalent of the MIC, unit not given

SMILES | cytotoxic activity ([1]; mammalian cells / 293T) | hemolytic activity [2] | Cytotox CC50 [1] | Human Serum hsMIC/MIC [3] | MIC S. aureus 29213 [4, 12] | MIC S. aureus 29213, molar equivalents (number in parentheses) [4, 13] | MIC E. coli ATCC 25922 [5, 12] | MIC E. coli ATCC 25922, molar equivalents (number in parentheses) [5, 13] | MIC P. aeruginosa ATCC 27853 [6] | MIC P. aeruginosa ATCC 27853, molar equivalents (number in parentheses) [6, 13] | MIC P. aeruginosa ATCC 39324 [7] | MIC P. aeruginosa ATCC 39324, molar equivalents (number in parentheses) [7, 13] | half-life at 0.099 mg/ml [8] | EC50 killing assay, BAA-2110 [9] | EC50 in the killing assay [10] | cytotoxicity against 293T relative to the MIC [1] | MIC in an MIC assay [11]
CC[C@@H](C)[C@@H](NC(=O)[C@H](NC(=O)[C@@H](CCCNC(=N)N)NC(=O)[C@H]1CCCN1C(=O)[C@@H](CCCCN)NC(=O)[C@@H](CCCCN)NC(=O)[C@@H](Cc1ccccc1)NC(=O)[C@@H](Cc1ccccc1)NC(=O)[C@@H](CCC(=O)O)NC(=O)[C@@H](CCCCN)NC(=O)[C@@H](C)NC(=O)[C@@H](CCCNC(=N)N)NC(=O)[C@@H](CCCCN)NC(=O)[C@@H](CCCCN)NC(=O)[C@H](NC(=O)[C@@H](CO)NC(=O)[C@@H](CCCCN)NC(=O)[C@@H](CCCCN)NC(=O)[C@@H](CC(C)C)NC(=O)[C@@H](CCCCN)NC(=O)[C@@H](CCCNC(=N)N)NC(=O)[C@@H](Cc1ccccc1)NC(=O)[C@@H](Cc1ccccc1)NC(=O)[C@@H](CCCCN)NC(=O)CNC(=O)CNC(=O)CN)C(C)C)C(C)C)C(=O)NCC(=O)N[C@@H](C(=O)N[C@H](CO)C(=O)N[C@@H](C(=O)N1CCC[C@@H]1C(=O)N[C@H](Cc1ccccc1)C(=O)O)[C@H](C)CC)C(C)C [D297] (HELM PEPTIDE1{G.G.G.[dK].[dF].[dF].[dR].[dK].[dL].[dK].[dK].[dS].[dV].[dK].[dK].[dR].[dA].[dK].[dE].[dF].[dF].[dK].[dK].[dP].[dR].[dV].[dI].G.[dV].[dS].[dI].[dP].[dF]}$$$$V2.0) | low | low | – | – | – | – | – | – | – | – | – | – | – | – | – | – | –
CC(C)(O/N=C(\C(=O)N[C@@H]1C(=O)N2C(C(=O)[O-])=C(C[n+]3ccccc3)CS[C@H]12)c1csc(N)n1)C(=O)O [Ceftazadime, reference compound] | – | – | 550 µg/mL | 1 | 4 µg/mL (≈ 7.32 µM) | 7.3 | 0.25 µg/mL (≈ 0.457 µM) | 0.5 | 1 µg/mL (≈ 1.83 µM) | 1.8 | 1 µg/mL (≈ 1.83 µM) | 1.8 | – | – | – | – | –
CC[C@H](C)[C@H](NC(=O)[C@@H](NC(=O)[C@H](CCCNC(=N)N)NC(=O)[C@@H]1CCCN1C(=O)[C@H](CCCCN)NC(=O)[C@H](CCCCN)NC(=O)[C@H](Cc1ccccc1)NC(=O)[C@H](Cc1ccccc1)NC(=O)[C@H](CCC(=O)O)NC(=O)[C@H](CCCCN)NC(=O)[C@H](C)NC(=O)[C@H](CCCNC(=N)N)NC(=O)[C@H](CCCCN)NC(=O)[C@H](CCCCN)NC(=O)[C@@H](NC(=O)[C@H](CO)NC(=O)[C@H](CCCCN)NC(=O)[C@H](CCCCN)NC(=O)[C@H](CC(C)C)NC(=O)[C@H](CCCCN)NC(=O)[C@H](CCCNC(=N)N)NC(=O)[C@H](Cc1ccccc1)NC(=O)[C@H](Cc1ccccc1)NC(=O)[C@H](CCCCN)NC(=O)CNC(=O)CNC(=O)CN)C(C)C)C(C)C)C(=O)NCC(=O)N[C@H](C(=O)N[C@@H](CO)C(=O)N[C@H](C(=O)N1CCC[C@H]1C(=O)N[C@@H](Cc1ccccc1)C(=O)O)[C@@H](C)CC)C(C)C [P297] (H-GGGKFFRKLKKSVKKRAKEFFKKPRVIGVSIPF-OH) | – | – | 780 µg/mL | – | – | – | – | – | 4 µg/mL (≈ 1.05 µM) | – | 2 µg/mL (≈ 0.525 µM) | – | ~20 min | 0.14 to 0.28 µg/mL | 0.14 to 0.28 µg/mL | approximately 200 fold | 2 to 4 µg/mL
